Biological target: Neuraminidase (Influenza A virus (A/Puerto Rico/8/1934(H1N1)), UniProt P03468)
Experiment: Inhibition of influenza A virus A/PR/8/34(H1N1) neuraminidase assessed as fluorescent product using MUNANA as substrate after 60 mins by fluorescence analysis

Chain of Neuraminidase (Influenza A virus (A/Puerto Rico/8/1934(H1N1)), UniProt P03468) (P03468 whole entry): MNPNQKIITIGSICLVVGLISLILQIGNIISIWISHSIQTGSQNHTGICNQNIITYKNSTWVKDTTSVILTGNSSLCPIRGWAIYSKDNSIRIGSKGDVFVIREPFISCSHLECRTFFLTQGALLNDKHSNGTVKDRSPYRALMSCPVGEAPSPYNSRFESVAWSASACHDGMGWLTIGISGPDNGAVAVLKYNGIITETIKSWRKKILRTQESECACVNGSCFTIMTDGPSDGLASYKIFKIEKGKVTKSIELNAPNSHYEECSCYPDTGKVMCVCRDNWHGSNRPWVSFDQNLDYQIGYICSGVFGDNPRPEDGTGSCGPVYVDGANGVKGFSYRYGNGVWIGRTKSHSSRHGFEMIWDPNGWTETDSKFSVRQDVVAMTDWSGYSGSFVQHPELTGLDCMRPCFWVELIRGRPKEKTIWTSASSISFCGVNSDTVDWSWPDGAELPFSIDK

In order of falling IC50:
1. C[C@@H]1COC[C@H](C)N1Cc1c(O)c(O)c(O)c2c(=O)cc(-c3ccccc3)oc12  591 µM
2. O=c1cc(-c2ccccc2)oc2c(CN3CCC(CO)CC3)c(O)c(O)c(O)c12  470 µM
3. O=c1cc(-c2ccccc2)oc2c(CN3CCOCC3)c(O)cc(O)c12  448 µM
4. CN1CCN(Cc2c(O)cc(O)c3c(=O)cc(-c4ccccc4)oc23)CC1  431 µM
5. CN1CCN(Cc2c(O)c(O)c(O)c3c(=O)cc(-c4ccccc4)oc23)CC1  302 µM
6. O=c1cc(-c2ccccc2)oc2c(CN3CCC(O)CC3)c(O)cc(O)c12  295 µM
7. O=c1cc(-c2ccccc2)oc2c(CN3CCN(CCO)CC3)c(O)c(O)c(O)c12  276 µM
8. O=c1cc(-c2ccccc2)oc2c(CN3CCCC(O)C3)c(O)cc(O)c12 (stereo not given)  259 µM
9. O=c1cc(-c2ccccc2)oc2c(CN3CCCC3)c(O)cc(O)c12  182 µM
10. O=c1cc(-c2ccc(O)cc2)oc2c(CN3CCC(O)CC3)c(O)cc(O)c12  168 µM
11. CC1CCN(Cc2c(O)cc(O)c3c(=O)cc(-c4ccc(O)cc4)oc23)CC1  164 µM
12. CC1CCCCN1Cc1c(O)cc(O)c2c(=O)cc(-c3ccc(O)c(O)c3)oc12 (stereo not given)  161 µM
13. CN1CCN(Cc2c(O)cc(O)c3c(=O)cc(-c4ccc(O)cc4)oc23)CC1  148 µM
14. O=c1cc(-c2ccccc2)oc2c(CN3CCN(CCO)CC3)c(O)cc(O)c12  135 µM
15. O=c1cc(-c2ccccc2)oc2c(CN3CCCC3)c(O)c(O)c(O)c12  107 µM
16. O=c1cc(-c2ccccc2)oc2c(CN3CCCCC3)c(O)c(O)c(O)c12  104 µM
17. CC1CCCCN1Cc1c(O)c(O)c(O)c2c(=O)cc(-c3ccccc3)oc12 (stereo not given)  99.7 µM
18. O=c1cc(-c2ccccc2)oc2c(CN3CCC(O)CC3)c(O)c(O)c(O)c12  91.5 µM
19. O=c1cc(-c2ccccc2)oc2c(CN3CCC(CO)CC3)c(O)cc(O)c12  83.7 µM
20. O=c1cc(-c2ccc(O)c(O)c2)oc2c(CN3CCOCC3)c(O)cc(O)c12  81.9 µM
21. O=c1cc(-c2ccccc2)oc2c(CN3CCCC(O)C3)c(O)c(O)c(O)c12 (stereo not given)  68.2 µM
22. O=c1cc(-c2ccc(O)c(O)c2)oc2c(CN3CCC(CO)CC3)c(O)cc(O)c12  64.2 µM
23. O=c1cc(-c2ccc(O)cc2)oc2c(CN3[C@H](O)COC[C@@H]3O)c(O)cc(O)c12  64 µM
24. O=c1cc(-c2ccc(O)c(O)c2)oc2c(CN3CCCC(O)C3)c(O)cc(O)c12 (stereo not given)  63.6 µM
25. O=c1cc(-c2ccc(O)c(O)c2)oc2c(CN3CCCCC3)c(O)cc(O)c12  62.9 µM
26. CN1CCN(Cc2c(O)cc(O)c3c(=O)cc(-c4ccc(O)c(O)c4)oc23)CC1  53.8 µM
27. CC1CCCN(Cc2c(O)cc(O)c3c(=O)cc(-c4ccc(O)cc4)oc23)C1 (stereo not given)  52.5 µM
28. O=c1cc(-c2ccc(O)cc2)oc2c(CN3CCOCC3)c(O)cc(O)c12  50.5 µM
29. O=c1cc(-c2ccc(O)cc2)oc2c(CN3CCC[C@H]3CO)c(O)cc(O)c12  49.7 µM
30. O=c1cc(-c2ccc(O)cc2)oc2c(CN3CCN(Cc4ccccc4)CC3)c(O)cc(O)c12  48.5 µM
31. O=c1cc(-c2ccc(O)cc2)oc2c(CN3CCC(Cc4ccccc4)CC3)c(O)cc(O)c12  46.1 µM
32. O=c1cc(-c2ccc(O)cc2)oc2c(CN3CCCC(O)C3)c(O)cc(O)c12 (stereo not given)  45.3 µM
33. O=c1cc(-c2ccc(O)cc2)oc2c(CN3CCCC3)c(O)cc(O)c12  44.5 µM
34. C[C@@H]1COC[C@H](C)N1Cc1c(O)cc(O)c2c(=O)cc(-c3ccc(O)c(O)c3)oc12  43.5 µM
35. O=c1cc(-c2ccc(O)cc2)oc2c(CN3CCC(CO)CC3)c(O)cc(O)c12  40.9 µM

Source: ChEMBL document CHEMBL1833871, “3D QSAR and docking study of flavone derivatives as potent inhibitors of influenza H1N1 virus neuraminidase” (Bioorg Med Chem Lett, 2011)
